Earlier results as cited in US20080139531A1, “USE OF CONNECTIVE TISSUE MAST CELL STABILIZERS TO FACILITATE OCULAR SURFACE RE-EPITHELIZATION AND WOUND REPAIR” (ALCON MANUFACTURING LTD., priority 2006, published 2008).

System: human conjunctival mast cells
Settings: qualitative statement citing Yanni et al., 1997

## CN(C)CCC=C1c2ccccc2COc2ccc(CC(=O)O)cc21 [olopatadine, 11-(3-dimethylaminopropylidene)-6,11-dihydrodibenz[b,e]oxepin-2-acetic acid]
  inhibition of histamine release from human conjunctival mast cells: inhibits histamine release

## Cc1cccn2c(=O)c(-c3nnn[nH]3)cnc12 [pemirolast]
  inhibition of histamine release from human conjunctival mast cells: Unlike cromolyn and pemirolast, olopatadine inhibits histamine release
